The values that follow come from PMC11985001, “Melatonin rescues cell respiration impaired by hypoxia/reoxygenation in aortic endothelial cells and affects the mitochondrial bioenergetics targeting the F1FO-ATPase” (Redox Biology, 2025).

In test [1] the target is T1, F1 domain of mitochondrial F1FO-ATPase (F1-ATPase) (Sus scrofa, UniProt K7GLT8+P80021).
T1 construct: gene ATP5F1B; partially purified F1 domain from swine heart mitochondria; with other subunits of the F1 complex
Nature of the test: ATP hydrolysis (Pi release) with partially purified F1, […] NBD-Cl. The class given is biochemical.

In test [2] the target is T2, F1 domain of mitochondrial F1FO-ATPase (Ca2+-activated F1-ATPase) (Sus scrofa, UniProt K7GLT8+P80021).
T2 construct: gene ATP5F1B; native whole F1FO-ATPase in frozen-thawed pig heart mitochondria; not purified F1
T2 sequence (K7GLT8 89-570): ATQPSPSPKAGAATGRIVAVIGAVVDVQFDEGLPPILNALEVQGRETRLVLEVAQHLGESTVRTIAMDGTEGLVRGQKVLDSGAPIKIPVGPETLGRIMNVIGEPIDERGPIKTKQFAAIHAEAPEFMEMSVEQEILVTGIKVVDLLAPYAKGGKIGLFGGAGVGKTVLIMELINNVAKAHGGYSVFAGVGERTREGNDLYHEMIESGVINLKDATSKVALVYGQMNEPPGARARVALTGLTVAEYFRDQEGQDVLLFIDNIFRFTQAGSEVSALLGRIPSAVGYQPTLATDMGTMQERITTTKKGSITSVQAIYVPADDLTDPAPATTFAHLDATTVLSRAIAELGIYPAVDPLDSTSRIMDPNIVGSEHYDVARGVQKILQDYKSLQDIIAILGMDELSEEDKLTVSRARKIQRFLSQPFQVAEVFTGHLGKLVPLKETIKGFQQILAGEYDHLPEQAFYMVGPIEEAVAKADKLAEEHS
T2 sequence (P80021 44-553): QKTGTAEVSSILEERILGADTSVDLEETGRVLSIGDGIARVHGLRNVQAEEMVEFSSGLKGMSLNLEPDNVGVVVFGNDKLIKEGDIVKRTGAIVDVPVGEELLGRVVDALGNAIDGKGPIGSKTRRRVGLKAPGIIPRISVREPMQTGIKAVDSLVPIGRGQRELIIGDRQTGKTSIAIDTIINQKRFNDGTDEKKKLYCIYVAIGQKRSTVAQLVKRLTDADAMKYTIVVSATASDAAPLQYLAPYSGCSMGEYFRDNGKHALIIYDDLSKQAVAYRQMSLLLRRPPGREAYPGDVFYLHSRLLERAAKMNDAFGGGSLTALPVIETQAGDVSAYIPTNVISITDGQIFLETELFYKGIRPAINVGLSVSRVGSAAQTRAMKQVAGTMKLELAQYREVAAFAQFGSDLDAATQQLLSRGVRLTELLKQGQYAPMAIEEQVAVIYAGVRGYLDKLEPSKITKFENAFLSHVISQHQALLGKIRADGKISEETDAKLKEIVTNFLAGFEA
T2 sequence (A0A286ZYL7 23-168 partner): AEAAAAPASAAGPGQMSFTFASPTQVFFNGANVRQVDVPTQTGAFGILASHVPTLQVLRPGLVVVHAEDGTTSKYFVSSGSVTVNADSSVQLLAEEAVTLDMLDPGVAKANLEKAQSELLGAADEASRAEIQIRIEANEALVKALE
T2 sequence (A5GFX4 2-51 partner): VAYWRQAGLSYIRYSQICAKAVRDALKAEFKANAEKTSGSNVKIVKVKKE
T2 sequence (Q2EN81 24-213 partner): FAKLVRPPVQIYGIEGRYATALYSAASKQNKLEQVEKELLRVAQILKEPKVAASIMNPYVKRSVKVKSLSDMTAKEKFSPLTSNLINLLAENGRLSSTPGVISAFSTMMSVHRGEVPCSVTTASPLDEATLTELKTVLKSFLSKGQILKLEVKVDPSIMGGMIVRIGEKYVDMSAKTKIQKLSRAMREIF
T2 sequence (Q35915 whole entry partner, the tested form may be a part): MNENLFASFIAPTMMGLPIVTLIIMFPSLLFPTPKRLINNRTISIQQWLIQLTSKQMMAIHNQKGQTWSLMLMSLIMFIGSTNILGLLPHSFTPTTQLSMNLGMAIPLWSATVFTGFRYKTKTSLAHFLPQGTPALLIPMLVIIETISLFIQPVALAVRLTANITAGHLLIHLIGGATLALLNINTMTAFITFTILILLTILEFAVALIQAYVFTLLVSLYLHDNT
Nature of the test: ATP hydrolysis (Pi release) with partially purified F1 at […] melatonin; IC50 from the mitochondrial Ca2+-activated F1FO-ATPase (K'i […]). The class given is biochemical.

T1 sequence (K7GLT8 89-570): as the sequence (K7GLT8 89-570) above
T1 sequence (P80021 44-553): as the sequence (P80021 44-553) above
T1 sequence (A0A286ZYL7 23-168 partner): as the sequence (A0A286ZYL7 23-168 partner) above
T1 sequence (A5GFX4 2-51 partner): as the sequence (A5GFX4 2-51 partner) above

On to `O=[N+]([O-])c1ccc(Cl)c2nonc12` [NBD-Cl], for which, in test [1], the “ATP hydrolysis (Pi release) with partially purified F1, 75 μM NBD-Cl” value is “F1-ATPase activity was insensitive to oligomycin and was inhibited by NBD-Cl”.
In turn, `COc1ccc2[nH]cc(CCNC(C)=O)c2c1` [melatonin] yielded an IC50 in test [2] of 6.63 ± 2.33 mM.
